Columns and labels:
[1] = system: human airway epithelial cells (HAECs); experiment: High-throughput sequencing (HTS) of miRNAs at four stages of differentiation of HAECs; details: for Modulation (ratio of the level of intensity of expression in log2 in two stages of differentiation) measured by high-throughput sequencing, D7 − D0 / Modulation (ratio of the level of intensity of expression in log2 in two stages of differentiation) measured by high-throughput sequencing, FC − D7 / Modulation (ratio of the level of intensity of expression in log2 in two stages of differentiation) measured by high-throughput sequencing, WD − D0 / Modulation (ratio of the level of intensity of expression in log2 in two stages of differentiation) measured by high-throughput sequencing, WD − FC / Level of intensity of expression in log2 measured by high-throughput sequencing, D0 / Level of intensity of expression in log2 measured by high-throughput sequencing, D7 / Level of intensity of expression in log2 measured by high-throughput sequencing, FC / Level of intensity of expression in log2 measured by high-throughput sequencing, WD: Table VI; for Level of intensity of expression in log2 At the differentiated stage (WD) measured in HTS: healthy human airway epithelial tissue; for Level of intensity of expression in log2 measured by high-throughput sequencing, D0: stage D0; for Level of intensity of expression in log2 measured by high-throughput sequencing, D7: stage D7; for Level of intensity of expression in log2 measured by high-throughput sequencing, FC: stage FC; for Level of intensity of expression in log2 At the differentiated stage (WD) measured in HTS / Level of intensity of expression in log2 measured by high-throughput sequencing, WD: stage WD; for Modulation (ratio of the level of intensity of expression in log2 in two stages of differentiation), D7 − D0 / Modulation (ratio of the level of intensity of expression in log2 in two stages of differentiation), FC − D7 / Modulation (ratio of the level of intensity of expression in log2 in two stages of differentiation), WD − FC / Abundance (%), D0 / Abundance (%), D7 / Abundance (%), FC / Abundance (%), WD: HTS; for Abundance (%), D0: ALI-D0; for Abundance (%), D7: ALI-D7; for Abundance (%), FC: ALI-FC; for Abundance (%), WD: ALI-WD
How it was run: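 Small-RNA libraries from differentiating HAECs (ALI-D0 to ALI-WD) were built by ligation-based SOLiD chemistry, size-selected and sequenced. Strand counts were normalized per million reads, converted to percentage abundance, and filtered on adjusted P-value below 0.05.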

[2] = system: human airway epithelial cells (HAECs); experiment: Agilent miRNA chips, miRNA expression at four stages of differentiation of HAECs; details: for Modulation (ratio of the level of intensity of expression in log2 in two stages of differentiation) measured with the Agilent chips, D7 − D0 / Modulation (ratio of the level of intensity of expression in log2 in two stages of differentiation) measured with the Agilent chips, FC − D7 / Modulation (ratio of the level of intensity of expression in log2 in two stages of differentiation) measured with the Agilent chips, WD − D0 / Modulation (ratio of the level of intensity of expression in log2 in two stages of differentiation) measured with the Agilent chips, WD − FC / Level of intensity of expression in log2 measured with the Agilent chips, D0 / Level of intensity of expression in log2 measured with the Agilent chips, D7 / Level of intensity of expression in log2 measured with the Agilent chips, FC / Level of intensity of expression in log2 measured with the Agilent chips, WD: Table VI; for Modulation (ratio of the level of intensity of expression in log2 at two stages of differentiation), FC − D7 / Modulation (ratio of the level of intensity of expression in log2 at two stages of differentiation), WD − FC: Agilent miRNA chips, Table V; for Level of intensity of expression in log2 measured with the Agilent chips, D0: stage D0; for Level of intensity of expression in log2 measured with the Agilent chips, D7: stage D7; for Level of intensity of expression in log2 measured with the Agilent chips, FC: stage FC; for Level of intensity of expression in log2 measured with the Agilent chips, WD: stage WD
How it was run: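 RNA from the same patients' HAECs at four differentiation stages was labelled and hybridized with the Agilent miRNA labeling and hybridization kit. Chips were Human miRNA Microarray v2, with 866 human and 89 viral miRNAs (miRBase v12.0). Profiles were compared with high-throughput sequencing data.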

[3] = system: basal cells and pyramidal cells of the airway epithelium; experiment: miRNA expression in sorted basal cells versus pyramidal cells (ciliated + secretory), HTS and Agilent chips; design: species or system human; details: for Modulation of expression of the miRNAs in pyramidal cells (323(−)) relative to basal cells 323(+): HTS and Agilent chips; for Intensity of the level of expression in log2 in pyramidal cells (323(−)): pyramidal cells (ciliated + secretory)
How it was run: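 Epithelium dissociated from nasal polyps is held 30 min in PBS-BSA-EDTA, then labelled 20 min at 4° C for CD151 and tissue factor. After DAPI staining, live single cells are sorted into marker-double-positive and double-negative fractions, and sort purity and identity are verified. Total RNA then undergoes miRNA profiling on arrays or by sequencing.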

Substance | Modulation (ratio of the level of intensity of expression in log2 in two stages of differentiation) measured by high-throughput sequencing, D7 − D0 [1] [log2] | Modulation (ratio of the level of intensity of expression in log2 in two stages of differentiation) measured by high-throughput sequencing, FC − D7 [1] [log2] | Modulation (ratio of the level of intensity of expression in log2 in two stages of differentiation) measured by high-throughput sequencing, WD − D0 [1] [log2] | Modulation (ratio of the level of intensity of expression in log2 in two stages of differentiation) measured by high-throughput sequencing, WD − FC [1] [log2] | Level of intensity of expression in log2 At the differentiated stage (WD) measured in HTS [1] [log2] | Level of intensity of expression in log2 measured by high-throughput sequencing, D0 [1] [log2] | Level of intensity of expression in log2 measured by high-throughput sequencing, D7 [1] [log2] | Level of intensity of expression in log2 measured by high-throughput sequencing, FC [1] [log2] | Level of intensity of expression in log2 measured by high-throughput sequencing, WD [1] [log2] | Modulation (ratio of the level of intensity of expression in log2 in two stages of differentiation) measured with the Agilent chips, D7 − D0 [2] [log2] | Modulation (ratio of the level of intensity of expression in log2 in two stages of differentiation) measured with the Agilent chips, FC − D7 [2] [log2] | Modulation (ratio of the level of intensity of expression in log2 in two stages of differentiation) measured with the Agilent chips, WD − D0 [2] [log2] | Modulation (ratio of the level of intensity of expression in log2 in two stages of differentiation) measured with the Agilent chips, WD − FC [2] [log2] | Level of intensity of expression in log2 measured with the Agilent chips, D0 [2] [log2] | Level of intensity of expression in log2 measured with the Agilent chips, D7 [2] [log2] | Level of intensity of expression in log2 measured with the Agilent chips, FC [2] [log2] | Level of intensity of expression in log2 measured with the Agilent chips, WD [2] [log2] | Modulation of expression of the miRNAs in pyramidal cells (323(−)) relative to basal cells 323(+) [3] | Intensity of the level of expression in log2 in basal cells (323(+)) [3] [log2] | Intensity of the level of expression in log2 in pyramidal cells (323(−)) [3] [log2] | also measured
hsa-miR-27b: human miRNA, SEQ ID No. 30 (UUCACAGUGGCUAAGUUCUGC; expressed or natural sequence; listed as Homo sapiens) | 0.64 | −0.69 | −0.11 | −0.06 | 14.81 | 6.92 | 7.57 | 6.88 | 6.81 | 1.77 | −0.47 | 1.36 | 0.05 | 9.26 | 11.03 | 10.57 | 10.62 | −3.56 | 9.77 | 6.21 | Modulation (ratio of the level of intensity of expression in log2 at two stages of differentiation), FC − D7 [2]: −0.47 log2; Modulation (ratio of the level of intensity of expression in log2 at two stages of differentiation), WD − FC [2]: 0.05 log2
hsa-miR-29a: human miRNA, SEQ ID No. 31 (UAGCACCAUCUGAAAUCGGUUA; expressed or natural sequence; listed as Homo sapiens) | −1.34 | −0.11 | −1.43 | 0.02 | 14.53 | 16.24 | 14.90 | 14.79 | 14.81 | 0.17 | −0.71 | −0.38 | 0.16 | 11.23 | 11.40 | 10.69 | 10.85 | −2.95 | 11.09 | 8.14 | Modulation (ratio of the level of intensity of expression in log2 in two stages of differentiation), D7 − D0 [1]: −1.34 log2; Modulation (ratio of the level of intensity of expression in log2 in two stages of differentiation), FC − D7 [1]: −0.11 log2; Modulation (ratio of the level of intensity of expression in log2 in two stages of differentiation), WD − FC [1]: 0.02 log2; Abundance (%), D0 [1]: 17.01%; Abundance (%), D7 [1]: 6.72%; Abundance (%), FC [1]: 6.02%; Abundance (%), WD [1]: 4.64%
hsa-miR-29c: human miRNA, SEQ ID No. 32 (UAGCACCAUUUGAAAUCGGUUA; expressed or natural sequence; listed as Homo sapiens) | 0.82 | 0.02 | 0.87 | 0.03 | 9.74 | 13.66 | 14.48 | 14.50 | 14.53 | 1.61 | −0.28 | 1.57 | 0.24 | 9.04 | 10.66 | 10.38 | 10.62 | −3.06 | 11.06 | 8.00 | Modulation (ratio of the level of intensity of expression in log2 in two stages of differentiation), D7 − D0 [1]: 0.82 log2; Modulation (ratio of the level of intensity of expression in log2 in two stages of differentiation), FC − D7 [1]: 0.02 log2; Modulation (ratio of the level of intensity of expression in log2 in two stages of differentiation), WD − FC [1]: 0.03 log2; Abundance (%), D0 [1]: 2.84%; Abundance (%), D7 [1]: 5.03%; Abundance (%), FC [1]: 4.95%; Abundance (%), WD [1]: 3.82%; Modulation (ratio of the level of intensity of expression in log2 at two stages of differentiation), FC − D7 [2]: −0.28 log2; Modulation (ratio of the level of intensity of expression in log2 at two stages of differentiation), WD − FC [2]: 0.24 log2
hsa-miR-30b: human miRNA, SEQ ID No. 33 (UGUAAACAUCCUACACUCAGCU; expressed or natural sequence; listed as Homo sapiens) | 0.83 | −0.27 | 1.24 | 0.68 | 0.01 | 8.50 | 9.33 | 9.06 | 9.74 | 2.36 | 0.05 | 2.55 | 0.15 | 7.62 | 9.98 | 10.03 | 10.17 | −0.80 | 8.76 | 7.96 | Modulation (ratio of the level of intensity of expression in log2 at two stages of differentiation), FC − D7 [2]: 0.05 log2; Modulation (ratio of the level of intensity of expression in log2 at two stages of differentiation), WD − FC [2]: 0.15 log2

Source: US9023821B2, “Use of MicroRNA for treating diseases associated with a dysfunction of the cilia in multiciliated epithelial cells” (Centre National de la Recherche Scientifique, priority 2009, dated 2015)
